Columns and labels:
[1] = tested on: MCF-7 cells; assay: Cell growth by Incucyte confluence, MCF-7; assay type: cell-based, human; settings: 48–72 h; for reduction of proliferation of MCF-7 cells: 25 µM
Experimental: (§1) MCF-7 (DSMZ ACC 115) and PANC-1 (DSMZ ACC 783) cells were grown as recommended by the cell supplier at 5% CO2 and 37 °C in a humidified atmosphere. For determining cell growth, cells were seeded in 96-well culture plates (Corning, Corning, NY, USA) at a density of 10^4 cells/well. After 24 h, the compounds were added diluted in medium. Six wells per condition were used. Four images of each well were collected at 1 h intervals for 48–72 h. Two biological replicates were performed. Images were acquired using an Incucyte device (Sartorius/Essen biosciences). Cell confluence was calculated using the Incucyte software on the phase contrast images. The results are expressed as percent confluence per well normalised to the value with no compounds added.

[2] = tested on: MCF-7 breast cancer cell line; assay: MTS antiproliferative assay; assay type: cell-based; settings: Homo sapiens, MCF7, 72 h
Experimental: The antiproliferative activities of the compounds were evaluated on the breast cancer cell line MCF-7 (ATCC HTB-22, adherent cells isolated from a person), using an MTS (Promega, Madison, WI, USA) assay according to the manufacturer’s instructions. The MCF-7 cell line was obtained from the American Type Culture Collection (ATCC, Manassas, VA, USA). Cells were cultured in low-glucose Dulbecco’s Modified Eagle’s Medium (DMEM) (Sigma-Aldrich, St. Louis, MO, USA), supplemented with 10% fetal bovine serum (Gibco, Thermo Fisher Scientific, Waltham, MA, USA), 100 U/mL penicillin (Sigma-Aldrich, St. Louis, MO, USA), 100 µg/mL streptomycin (Sigma-Aldrich, St. Louis, MO, USA), and 2 mM L-glutamine (Sigma-Aldrich, St. Louis, MO, USA). The cell line was incubated in a 5% CO2 atmosphere at 37 °C. Cells were plated out in 96-well plates at a density of 2000 cells per well and incubated overnight. The next day, cells were treated with the indicated compounds, positive control (17-DMAG), or vehicle control (0.5% DMSO) and incubated for 72 h. […] Absorbance was measured at 492 nm using a microplate reader (Synergy 4 Hybrid; BioTek, Winooski, VT, USA). […] Statistical significance (p < 0.05) was calculated using a two-tailed Welch’s t-test between treated groups and DMSO. IC50 values are given as averages of the independent measurements and were calculated using GraphPad Prism 8.0 software (San Diego, CA, USA). […]

[3] = tested on: Panc-1 cells; assay: Cell growth by Incucyte confluence, Panc-1; assay type: cell-based, human; settings: 48–72 h; for reduction of proliferation of Panc-1 cells: 25 µM
Experimental: as §1

[4] = concentrations higher than 25 µM

IC50 [2] | Compound | reduction of proliferation of MCF-7 cells [1] | reduction of proliferation of Panc-1 cells [3] | inhibition of growth of MCF-7 cells [1, 4] | inhibition of growth of Panc-1 cells [3, 4]
11.9 ± 1 µM | CN(C)CCOc1c(Br)cc(Nc2ccc(C(F)(F)F)cc2[N+](=O)[O-])cc1Br [Compound 18b, 3,5-Dibromo-4-(2-(dimethylamino)ethoxy)-N-(2-nitro-4-(trifluoromethyl)phenyl)aniline] | approximately half | approximately half | – | –
18.5 ± 1.5 µM | CCN(CC)CCOc1ccc(Nc2ccc(C(F)(F)F)cc2[N+](=O)[O-])cc1 [Compound 17a, N-(4-(2-(Diethylamino)ethoxy)phenyl)-2-nitro-4-(trifluoromethyl)aniline] | approximately half | approximately half | approximately 50% | approximately 50%
